Assays:
[1] = test system: duplex-form calf thymus DNA (CT-DNA); assay: Thermal denaturation studies with calf thymus DNA; type: binding; conditions: [PBD]:[DNA] molar ratio 1:5, CT-DNA 100 μM, ligand 20 μM, pH 7.00
Method: Compounds have been subjected to thermal denaturation studies with duplex-form calf thymus DNA (CT-DNA) using an modification of a reported procedure (Newman, M. S. Carcinog-compr. Surv. 1976, 1, 203; (b) Hecht, S. S.; Loy, M.; Hoffman, Carcinog-compr. Surv. 1976, 1, 325). Working solutions in aqueous buffer (10 mM NaH2PO4/Na2HPO4, 1 mM Na2EDTA, pH 7.00+0.01) containing CT-DNA (100 μm in phosphate) and the PBD (20 μm) have been prepared by addition of concentrated PBD solutions in DMSO to obtain a fixed [PBD]/[DNA] molar ratio of 1:5. The DNA-PBD solutions have been incubated at 37° C. for 0 and 18 h prior to analysis. Samples have been monitored at 260 nm using a Beckman DU-800 spectrophotometer fitted with high performance temperature controller, and heated at 1° C. min^−1 in the 40-110° C. range. DNA helix→coil transition temperatures (Tm) have been obtained from the maxima in the d(A260)/dT derivative plots. Drug-induced alterations in DNA melting behavior are given by: ΔTm=Tm(DNA+PBD)−Tm(DNA alone), where the Tm value for the PBD-free CT-DNA is 69.1±0.01.
The DNA binding activity for these Cinnamido-pyrrolo[2,1-c][1,4]benzodiazepines have been examined by thermal denaturation studies using calf thymus (CT) DNA. […] The data for the compounds 8b&d, 11b&d, 14b&d and 17b&d is included in Table 1 for comparison.

CNS cell lines = assay: In vitro cytotoxicity (SRB), cancer panel; type: cell-based, human; conditions: average of six to eight cell lines, 48 h exposure
Method: (§1) The compounds were evaluated for in vitro anticancer activity against sixty human tumour cells derived from nine cancer types (leukemia, non-small-cell lung, colon, CNS, melanoma, ovarian, prostate, and breast cancer) as shown in Table 1a. For each compound, dose response curves for each cell line were measured at a minimum of five concentrations at 10 fold dilutions. A protocol of 48 h continuous drug exposure was used and a sulforhodamine B (SRB) protein assay was used to estimate cell viability or growth. The concentration causing 50% cell growth inhibition (GI50), total cell growth inhibition (TGI 0% growth) and 50% cell death (LC50, −50% growth) compared with the control was calculated. The Log10 GI50 (concentration in mol/L causing 50% growth inhibition) values for Cinnamido-pyrrolo[2,1-c][1,4]benzodiazepine (8b) is listed in Table 2.

786-0 = assay: In vitro cytotoxicity (SRB); type: cell-based, human; conditions: 786-0 (Renal); 48 h continuous drug exposure
Method: as §1

A498 = assay: In vitro cytotoxicity (SRB); type: cell-based, human; conditions: A498 (Renal); 48 h continuous drug exposure
Method: as §1

A549/ATCC = assay: In vitro cytotoxicity (SRB); type: cell-based, human; conditions: A549/ATCC (Non-small cell lung); 48 h continuous drug exposure
Method: as §1

ACHN = assay: In vitro cytotoxicity (SRB); type: cell-based, human; conditions: ACHN (Renal); 48 h continuous drug exposure
Method: as §1

BT-549 = assay: In vitro cytotoxicity (SRB); type: cell-based, human; conditions: BT-549 (Breast); 48 h continuous drug exposure
Method: as §1

CCRF-CEM = assay: In vitro cytotoxicity (SRB); type: cell-based, human; conditions: CCRF-CEM (Leukemia); 48 h continuous drug exposure
Method: as §1

HCT-116 = assay: In vitro cytotoxicity (SRB); type: cell-based, human; conditions: HCT-116 (Colon); 48 h continuous drug exposure
Method: as §1

HCT-15 = assay: In vitro cytotoxicity (SRB); type: cell-based, human; conditions: HCT-15 (Colon); 48 h continuous drug exposure
Method: as §1

HL-60(TB) = assay: In vitro cytotoxicity (SRB); type: cell-based, human; conditions: HL-60(TB) (Leukemia); 48 h continuous drug exposure
Method: as §1

IGROV1 = assay: In vitro cytotoxicity (SRB); type: cell-based, human; conditions: IGROV1 (Ovarian); 48 h continuous drug exposure
Method: as §1

MDA-MB-435 = assay: In vitro cytotoxicity (SRB); type: cell-based, human; conditions: MDA-MB-435 (Breast); 48 h continuous drug exposure
Method: as §1

MDA-MB-468 = assay: In vitro cytotoxicity (SRB); type: cell-based, human; conditions: MDA-MB-468 (Breast); 48 h continuous drug exposure
Method: as §1

MOLT-4 = assay: In vitro cytotoxicity (SRB); type: cell-based, human; conditions: MOLT-4 (Leukemia); 48 h continuous drug exposure
Method: as §1

NCI-H23 = assay: In vitro cytotoxicity (SRB); type: cell-based, human; conditions: NCI-H23 (Non-small cell lung); 48 h continuous drug exposure
Method: as §1

NCI-H522 = assay: In vitro cytotoxicity (SRB); type: cell-based, human; conditions: NCI-H522 (Non-small cell lung); 48 h continuous drug exposure
Method: as §1

OVCAR-3 = assay: In vitro cytotoxicity (SRB); type: cell-based, human; conditions: OVCAR-3 (Ovarian); 48 h continuous drug exposure
Method: as §1

OVCAR-8 = assay: In vitro cytotoxicity (SRB); type: cell-based, human; conditions: OVCAR-8 (Ovarian); 48 h continuous drug exposure
Method: as §1

PC-3 = assay: In vitro cytotoxicity (SRB); type: cell-based, human; conditions: PC-3 (Prostate); 48 h continuous drug exposure
Method: as §1

RXF 393 = assay: In vitro cytotoxicity (SRB); type: cell-based, human; conditions: RXF 393 (Renal); 48 h continuous drug exposure
Method: as §1

SF-539 = assay: In vitro cytotoxicity (SRB); type: cell-based, human; conditions: SF-539 (CNS); 48 h continuous drug exposure
Method: as §1

SN12C = assay: In vitro cytotoxicity (SRB); type: cell-based, human; conditions: SN12C (Renal); 48 h continuous drug exposure
Method: as §1

T-47D = assay: In vitro cytotoxicity (SRB); type: cell-based, human; conditions: T-47D (Breast); 48 h continuous drug exposure
Method: as §1

TK-10 = assay: In vitro cytotoxicity (SRB); type: cell-based, human; conditions: TK-10 (Renal); 48 h continuous drug exposure
Method: as §1

UACC-62 = assay: In vitro cytotoxicity (SRB); type: cell-based, human; conditions: UACC-62 (Melanoma); 48 h continuous drug exposure
Method: as §1

Q: With `COc1cc(/C=C/C(=O)N2CCN(C(=O)c3cc(OC)c(OC)c(OC)c3)CC2)ccc1OCCCOc1cc2c(cc1OC)C(=O)N1CCC[C@H]1C=N2` [8b, 7-methoxy-8-{3-(2-methoxy-4-(E)-3-oxo-3-[4-(3,4,5-trimethoxybenzoyl)piperazino]-1-propenylphenoxy)propoxy}-(11aS)-2,3,5,11^a-tetrahydro-5H-pyrrolo[2,1-c][1,4]benzo-diazepine-5-one] as the molecule, how does the “(ΔTm ° C.) after incubation at 37° C. for 0 h” value ([1]; 0 h incubation at 37° C.) read?
A: 1.2 °C

Q: And the “(ΔTm ° C.) after incubation at 37° C. for 18 h” value ([1]; 18 h incubation at 37° C.)?
A: 2.1 °C

Q: What about the “Log10 GI50” value (CNS cell lines) of the same molecule?
A: −6.78 mol/L

Q: And the GI50 (786-0)?
A: 0.49 µM

Q: What about the GI50 (A498) of the same molecule?
A: 0.21 µM

Q: And the GI50 (A549/ATCC)?
A: 0.48 µM

Q: What about the GI50 (ACHN) of the same molecule?
A: 2.75 µM

Q: What about the GI50 (BT-549) of the same molecule?
A: 0.13 µM

Q: What about the GI50 (CCRF-CEM) of the same molecule?
A: 0.25 µM

Q: What about the GI50 (HCT-116) of the same molecule?
A: 0.2 µM

Q: What about the GI50 (HCT-15) of the same molecule?
A: 3.39 µM

Q: And the GI50 (HL-60(TB))?
A: 0.25 µM

Q: And the GI50 (IGROV1)?
A: 0.27 µM

Q: And the GI50 (MDA-MB-435)?
A: 0.17 µM

Q: And the GI50 (MDA-MB-468)?
A: 0.14 µM

Q: What about the GI50 (MOLT-4) of the same molecule?
A: 0.2 µM

Q: And the GI50 (NCI-H23)?
A: 0.32 µM

Q: What about the GI50 (NCI-H522) of the same molecule?
A: 0.66 µM

Q: What about the GI50 (OVCAR-3) of the same molecule?
A: 0.29 µM

Q: What about the GI50 (OVCAR-8) of the same molecule?
A: 0.26 µM

Q: What about the GI50 (PC-3) of the same molecule?
A: 0.34 µM

Q: And the GI50 (RXF 393)?
A: 0.2 µM

Q: What about the GI50 (SF-539) of the same molecule?
A: 0.25 µM

Q: And the GI50 (SN12C)?
A: 0.33 µM

Q: And the GI50 (T-47D)?
A: 0.15 µM

Q: What about the GI50 (TK-10) of the same molecule?
A: 0.69 µM

Q: And the GI50 (UACC-62)?
A: 0.17 µM
